Laboratory results as given in PubChem BioAssay AID1963964 (Molecular Pharmacology Branch, DTP, NCI, 2024).

System: 997726-040-R-J2-PDC tumor spheroids, viability
Experiment: Anticancer human tumor 997726-040-R-J2-PDC patient-derived squamous cell lung carcinoma cell line growth inhibition [PI3K]
Details: spheroids with HUVEC and MSC; for IC50: curve of first compound; for viability, T/C: stronger effect = lower value; active means viability on the fitted dose curve at most 10% of control; inactive means the rest
Method in brief: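 Three cell types, namely tumor cells, endothelial cells and mesenchymal stem cells, formed each spheroid. Combinations with four PI3K inhibitors were screened at clinically achievable concentrations decreasing by half-log, and spheroid viability was recorded.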

[1] = second compound 0.00316 µM, first compound 0.0316 µM
[2] = second compound 0.00316 µM, first compound 0.1 µM
[3] = second compound 0.00316 µM, first compound 0.316 µM
[4] = second compound 0.00316 µM, first compound 1 µM
[5] = second compound 0.00316 µM, first compound 3.16 µM
[6] = second compound 0.00316 µM, first compound 10 µM
[7] = second compound 0.01 µM, first compound 0.0316 µM
[8] = second compound 0.01 µM, first compound 0.1 µM
[9] = second compound 0.01 µM, first compound 0.316 µM
[10] = second compound 0.01 µM, first compound 1 µM
[11] = second compound 0.01 µM, first compound 3.16 µM
[12] = second compound 0.01 µM, first compound 10 µM
[13] = second compound 0.0316 µM, first compound 0.0316 µM
[14] = second compound 0.0316 µM, first compound 0.1 µM
[15] = second compound 0.0316 µM, first compound 0.316 µM
[16] = second compound 0.0316 µM, first compound 1 µM
[17] = second compound 0.0316 µM, first compound 3.16 µM
[18] = second compound 0.0316 µM, first compound 10 µM
[19] = second compound 0.1 µM, first compound 0.0316 µM
[20] = second compound 0.1 µM, first compound 0.1 µM
[21] = second compound 0.1 µM, first compound 0.316 µM
[22] = second compound 0.1 µM, first compound 1 µM
[23] = second compound 0.1 µM, first compound 3.16 µM
[24] = second compound 0.1 µM, first compound 10 µM
[25] = second compound 0.316 µM, first compound 0.0316 µM
[26] = second compound 0.316 µM, first compound 0.1 µM
[27] = second compound 0.316 µM, first compound 0.316 µM
[28] = second compound 0.316 µM, first compound 1 µM
[29] = second compound 0.316 µM, first compound 3.16 µM
[30] = second compound 0.316 µM, first compound 10 µM
[31] = second compound 1 µM, first compound 0.0316 µM
[32] = second compound 1 µM, first compound 0.1 µM
[33] = second compound 1 µM, first compound 0.316 µM
[34] = second compound 1 µM, first compound 1 µM
[35] = second compound 1 µM, first compound 3.16 µM
[36] = second compound 1 µM, first compound 10 µM
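Further: spheroids exposed to compounds for seven days before readout.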

C=CC(=O)N1CCN(c2nc(=O)n(-c3c(C)ccnc3C(C)C)c3nc(-c4c(O)cccc4F)c(F)cc23)C(C)C1 (stereo not drawn) + CC(Nc1ccc2c(c1)OCCn1cc(N3C(=O)OCC3C(F)F)nc1-2)C(N)=O
inactive: viability, T/C [1] 88.3% | viability, T/C [2] 93.5% | viability, T/C [3] 96.6% | viability, T/C [4] 103% | viability, T/C [5] 119% | viability, T/C [6] 114% | viability, T/C [7] 87% | viability, T/C [8] 81.7% | viability, T/C [9] 88.5% | viability, T/C [10] 81.7% | viability, T/C [11] 106% | viability, T/C [12] 98.8% | viability, T/C [13] 60.2% | viability, T/C [14] 63.4% | viability, T/C [15] 67.5% | viability, T/C [16] 67.2% | viability, T/C [17] 72.1% | viability, T/C [18] 82.3% | viability, T/C [19] 43.7% | viability, T/C [20] 47.3% | viability, T/C [21] 43.3% | viability, T/C [22] 49.1% | viability, T/C [23] 54.4% | viability, T/C [24] 48.4% | viability, T/C [25] 31.6% | viability, T/C [26] 32.8% | viability, T/C [27] 33.8% | viability, T/C [28] 33.4% | viability, T/C [29] 37.7% | viability, T/C [30] 33.5% | viability, T/C [31] 26.7% | viability, T/C [32] 27.5% | viability, T/C [33] 29.5% | viability, T/C [34] 26.7% | viability, T/C [35] 30% | viability, T/C [36] 27.2%
< 31.6 nM: IC50 (second compound 0.1 µM) | IC50 (second compound 0.316 µM) | IC50 (second compound 1 µM)
> 10000 nM: IC50 (second compound 0.00316 µM) | IC50 (second compound 0.01 µM) | IC50 (second compound 0.0316 µM)

CCN1CCN(Cc2ccc(Nc3ncc(F)c(-c4cc(F)c5nc(C)n(C(C)C)c5c4)n3)nc2)CC1 + CC(Nc1ccc2c(c1)OCCn1cc(N3C(=O)OCC3C(F)F)nc1-2)C(N)=O
< 3.16 nM: IC50 (second compound 0.1 µM) | IC50 (second compound 0.316 µM) | IC50 (second compound 1 µM)
10.4 nM: IC50 (second compound 0.0316 µM)
> 1000 nM: IC50 (second compound 0.00316 µM)
inactive: viability, T/C (second compound 0.00316 µM, first compound 0.00316 µM) 79% | viability, T/C (second compound 0.00316 µM, first compound 0.01 µM) 79.8% | viability, T/C [1] 72.7% | viability, T/C [2] 58.5% | viability, T/C [3] 59.4% | viability, T/C [4] 62.3% | viability, T/C (second compound 0.01 µM, first compound 0.00316 µM) 79.8% | viability, T/C (second compound 0.01 µM, first compound 0.01 µM) 77.3% | viability, T/C [7] 60.7% | viability, T/C [8] 62.6% | viability, T/C [9] 55.4% | viability, T/C [10] 48.1% | viability, T/C (second compound 0.0316 µM, first compound 0.00316 µM) 55% | viability, T/C (second compound 0.0316 µM, first compound 0.01 µM) 54.6% | viability, T/C [13] 45.9% | viability, T/C [14] 37.7% | viability, T/C [15] 40.4% | viability, T/C [16] 43.4% | viability, T/C (second compound 0.1 µM, first compound 0.00316 µM) 44.7% | viability, T/C (second compound 0.1 µM, first compound 0.01 µM) 38.1% | viability, T/C [19] 34.6% | viability, T/C [20] 30.5% | viability, T/C [21] 32.5% | viability, T/C [22] 32.3% | viability, T/C (second compound 0.316 µM, first compound 0.00316 µM) 33.4% | viability, T/C (second compound 0.316 µM, first compound 0.01 µM) 29.6% | viability, T/C [25] 26.4% | viability, T/C [26] 22% | viability, T/C [27] 23.9% | viability, T/C [28] 23.1% | viability, T/C (second compound 1 µM, first compound 0.00316 µM) 29.3% | viability, T/C (second compound 1 µM, first compound 0.01 µM) 26.8% | viability, T/C [31] 22.8% | viability, T/C [32] 18.2% | viability, T/C [33] 20.4% | viability, T/C [34] 21.1%
830 nM: IC50 (second compound 0.01 µM)

Cn1ncc(Cl)c1-c1cc(C(=O)NC(CN)Cc2cccc(F)c2)sc1Cl (stereo not drawn) + CC(Nc1ccc2c(c1)OCCn1cc(N3C(=O)OCC3C(F)F)nc1-2)C(N)=O
82.7 nM: IC50 (second compound 0.00316 µM)
< 31.6 nM: IC50 (second compound 0.1 µM) | IC50 (second compound 0.316 µM) | IC50 (second compound 1 µM)
inactive: viability, T/C [1] 75.1% | viability, T/C [2] 45.4% | viability, T/C [3] 20.1% | viability, T/C [4] 13.6% | viability, T/C [7] 62.8% | viability, T/C [8] 48.7% | viability, T/C [9] 21.5% | viability, T/C [10] 14.8% | viability, T/C [13] 50.1% | viability, T/C [14] 39.8% | viability, T/C [15] 21% | viability, T/C [16] 12% | viability, T/C [19] 41% | viability, T/C [20] 32.6% | viability, T/C [21] 19.7% | viability, T/C [22] 11.2% | viability, T/C [25] 32.3% | viability, T/C [26] 25.9% | viability, T/C [27] 15.7% | viability, T/C [28] 11.2% | viability, T/C [31] 24% | viability, T/C [32] 23.5% | viability, T/C [33] 13.6% | viability, T/C [34] 9.98%
33.1 nM: IC50 (second compound 0.0316 µM)
active: viability, T/C [5] 10.8% | viability, T/C [6] 7.43% | viability, T/C [11] 8.36% | viability, T/C [12] 5.21% | viability, T/C [17] 7.58% | viability, T/C [18] 3.65% | viability, T/C [23] 6.59% | viability, T/C [24] 3.25% | viability, T/C [29] 5.81% | viability, T/C [30] 2.34% | viability, T/C [35] 6.08% | viability, T/C [36] 2.69%
83 nM: IC50 (second compound 0.01 µM)

Cn1nccc1Nc1nccc(-c2ccn(C(CO)c3ccc(Cl)c(F)c3)c(=O)c2)n1 (stereo not drawn) + CC(Nc1ccc2c(c1)OCCn1cc(N3C(=O)OCC3C(F)F)nc1-2)C(N)=O
601 nM: IC50 (second compound 0.0316 µM)
> 10000 nM: IC50 (second compound 0.00316 µM)
inactive: viability, T/C [1] 93% | viability, T/C [2] 75.4% | viability, T/C [3] 63.5% | viability, T/C [4] 64.3% | viability, T/C [5] 55.9% | viability, T/C [6] 49.4% | viability, T/C [7] 74.5% | viability, T/C [8] 72.6% | viability, T/C [9] 70.2% | viability, T/C [10] 58.9% | viability, T/C [11] 58.7% | viability, T/C [12] 39.6% | viability, T/C [13] 65.2% | viability, T/C [14] 57.5% | viability, T/C [15] 52% | viability, T/C [16] 47.3% | viability, T/C [17] 43.9% | viability, T/C [18] 31.8% | viability, T/C [19] 44.6% | viability, T/C [20] 39.5% | viability, T/C [21] 34.8% | viability, T/C [22] 32% | viability, T/C [23] 33.5% | viability, T/C [24] 23.6% | viability, T/C [25] 35.5% | viability, T/C [26] 34.4% | viability, T/C [27] 30% | viability, T/C [28] 31% | viability, T/C [29] 27.9% | viability, T/C [30] 20% | viability, T/C [31] 25.7% | viability, T/C [32] 27.5% | viability, T/C [33] 23% | viability, T/C [34] 27% | viability, T/C [35] 25.1% | viability, T/C [36] 19.1%
< 31.6 nM: IC50 (second compound 0.1 µM) | IC50 (second compound 0.316 µM) | IC50 (second compound 1 µM)
4670 nM: IC50 (second compound 0.01 µM)
